Measurements as given in PubChem BioAssay (NCI).
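Cells were grown in 96-well plates and exposed to each compound for 48 hours at five concentrations; endpoints were interpolated linearly between bracketing concentrations, or set to the highest concentration if not reached. GI50 = concentration required for 50% inhibition of growth. TGI marks complete inhibition of growth.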

What was measured:
Test in all cases: NCI-60 cell line screen, 48 h
OVCAR-8 ovarian = tested on: OVCAR-8 ovarian
HT29 colon = tested on: HT29 colon
PC-3 prostate = tested on: PC-3 prostate
BT-549 breast = tested on: BT-549 breast
UACC-257 melanoma = tested on: UACC-257 melanoma
OVCAR-3 ovarian = tested on: OVCAR-3 ovarian
SW-620 colon = tested on: SW-620 colon
OVCAR-4 ovarian = tested on: OVCAR-4 ovarian
SF-268 CNS = tested on: SF-268 CNS
MCF7 breast = tested on: MCF7 breast
DU-145 prostate = tested on: DU-145 prostate
HL-60(TB) leukemia = tested on: HL-60(TB) leukemia
A549 NSCLC = tested on: A549 NSCLC
HOP-92 NSCLC = tested on: HOP-92 NSCLC
M14 melanoma = tested on: M14 melanoma
UO-31 renal = tested on: UO-31 renal
SF-539 CNS = tested on: SF-539 CNS
ACHN renal = tested on: ACHN renal
UACC-62 melanoma = tested on: UACC-62 melanoma
EKVX NSCLC = tested on: EKVX NSCLC
MOLT-4 leukemia = tested on: MOLT-4 leukemia
COLO 205 colon = tested on: COLO 205 colon
SF-295 CNS = tested on: SF-295 CNS
A498 renal = tested on: A498 renal
HCT-15 colon = tested on: HCT-15 colon
K-562 leukemia = tested on: K-562 leukemia
CAKI-1 renal = tested on: CAKI-1 renal
HCT-116 colon = tested on: HCT-116 colon
LOX IMVI melanoma = tested on: LOX IMVI melanoma
U251 CNS = tested on: U251 CNS
HS 578T breast = tested on: HS 578T breast
NCI-H460 lung = tested on: NCI-H460 lung
786-0 renal = tested on: 786-0 renal
RPMI-8226 leukemia = tested on: RPMI-8226 leukemia
NCI/ADR-RES ovarian = tested on: NCI/ADR-RES ovarian
OVCAR-5 ovarian = tested on: OVCAR-5 ovarian
SNB-19 CNS = tested on: SNB-19 CNS
SK-MEL-28 melanoma = tested on: SK-MEL-28 melanoma
MDA-MB-231 breast = tested on: MDA-MB-231 breast
HOP-62 NSCLC = tested on: HOP-62 NSCLC
MDA-MB-435 = tested on: MDA-MB-435
TK-10 renal = tested on: TK-10 renal
RXF 393 renal = tested on: RXF 393 renal
SN12C renal = tested on: SN12C renal
SK-OV-3 ovarian = tested on: SK-OV-3 ovarian
SK-MEL-5 melanoma = tested on: SK-MEL-5 melanoma
SK-MEL-2 melanoma = tested on: SK-MEL-2 melanoma
KM12 colon = tested on: KM12 colon
NCI-H226 lung = tested on: NCI-H226 lung
MALME-3M melanoma = tested on: MALME-3M melanoma
CCRF-CEM leukemia = tested on: CCRF-CEM leukemia
NCI-H522 lung = tested on: NCI-H522 lung
SR leukemia = tested on: SR leukemia
HCC-2998 colon = tested on: HCC-2998 colon
IGROV1 ovarian = tested on: IGROV1 ovarian
NCI-H23 lung = tested on: NCI-H23 lung
SNB-75 CNS = tested on: SNB-75 CNS
T-47D breast = tested on: T-47D breast

CCN(CC)CCCOc1cc2c(cc1OC)C(=O)N1CCC[C@H]1C=N2
TGI (OVCAR-8 ovarian): > 100 µM | TGI (HT29 colon): 39.5 µM | TGI (PC-3 prostate): > 100 µM | TGI (BT-549 breast): 76.1 µM | TGI (UACC-257 melanoma): > 100 µM | TGI (OVCAR-3 ovarian): 50 µM | TGI (SW-620 colon): 33.2 µM | TGI (OVCAR-4 ovarian): > 100 µM | TGI (SF-268 CNS): > 100 µM | TGI (MCF7 breast): > 100 µM | TGI (DU-145 prostate): > 100 µM | TGI (HL-60(TB) leukemia): > 100 µM | TGI (A549 NSCLC): > 100 µM | TGI (HOP-92 NSCLC): 70.9 µM | TGI (M14 melanoma): > 100 µM | TGI (UO-31 renal): > 100 µM | TGI (SF-539 CNS): > 100 µM | TGI (ACHN renal): > 100 µM | TGI (UACC-62 melanoma): 54.3 µM | TGI (EKVX NSCLC): > 100 µM | TGI (MOLT-4 leukemia): 50.2 µM | TGI (COLO 205 colon): 38.6 µM | TGI (SF-295 CNS): 75.5 µM | TGI (A498 renal): 92.4 µM | TGI (HCT-15 colon): > 100 µM | TGI (K-562 leukemia): > 100 µM | TGI (CAKI-1 renal): 44.3 µM | TGI (HCT-116 colon): > 100 µM | TGI (LOX IMVI melanoma): 31.3 µM | TGI (U251 CNS): > 100 µM | TGI (HS 578T breast): > 100 µM | TGI (NCI-H460 lung): > 100 µM | TGI (786-0 renal): > 100 µM | TGI (RPMI-8226 leukemia): 53.8 µM | TGI (NCI/ADR-RES ovarian): > 100 µM | TGI (OVCAR-5 ovarian): > 100 µM | TGI (SNB-19 CNS): > 100 µM | TGI (SK-MEL-28 melanoma): 45.9 µM | TGI (MDA-MB-231 breast): > 100 µM | TGI (HOP-62 NSCLC): 92.1 µM | TGI (MDA-MB-435): 59.6 µM | TGI (TK-10 renal): > 100 µM | TGI (RXF 393 renal): 60 µM | TGI (SN12C renal): > 100 µM | TGI (SK-OV-3 ovarian): > 100 µM | TGI (SK-MEL-5 melanoma): 63.7 µM | TGI (SK-MEL-2 melanoma): > 100 µM | TGI (KM12 colon): 48.4 µM | TGI (NCI-H226 lung): 65.8 µM | TGI (MALME-3M melanoma): > 100 µM | TGI (CCRF-CEM leukemia): 87.5 µM | TGI (NCI-H522 lung): 54 µM | TGI (SR leukemia): > 100 µM

Cc1[nH]nc2c1N=C(c1ccccc1Cl)c1cc([N+](=O)[O-])ccc1N2
GI50 (OVCAR-8 ovarian): > 25 µM | TGI (OVCAR-8 ovarian): > 25 µM | GI50 (HT29 colon): 0.979 µM | TGI (HT29 colon): > 25 µM | GI50 (PC-3 prostate): 0.233 µM | TGI (PC-3 prostate): > 25 µM | GI50 (BT-549 breast): > 15.1 µM | TGI (BT-549 breast): > 25 µM | GI50 (UACC-257 melanoma): > 25 µM | TGI (UACC-257 melanoma): > 25 µM | GI50 (OVCAR-3 ovarian): 0.145 µM | TGI (OVCAR-3 ovarian): 0.836 µM | GI50 (SW-620 colon): 0.14 µM | TGI (SW-620 colon): > 25 µM | GI50 (OVCAR-4 ovarian): 5.15 µM | TGI (OVCAR-4 ovarian): > 25 µM | GI50 (SF-268 CNS): 1.14 µM | TGI (SF-268 CNS): > 25 µM | GI50 (MCF7 breast): 0.142 µM | TGI (MCF7 breast): > 25 µM | GI50 (DU-145 prostate): 0.891 µM | TGI (DU-145 prostate): > 25 µM | GI50 (HL-60(TB) leukemia): 0.104 µM | TGI (HL-60(TB) leukemia): > 25 µM | GI50 (HCC-2998 colon): 14.6 µM | TGI (HCC-2998 colon): > 25 µM | GI50 (HOP-92 NSCLC): > 18.9 µM | TGI (HOP-92 NSCLC): > 25 µM | GI50 (IGROV1 ovarian): > 8.07 µM | TGI (IGROV1 ovarian): > 25 µM | GI50 (M14 melanoma): 0.687 µM | TGI (M14 melanoma): > 25 µM | GI50 (UO-31 renal): 4.94 µM | TGI (UO-31 renal): > 25 µM | GI50 (SF-539 CNS): 0.132 µM | TGI (SF-539 CNS): > 5.27 µM | GI50 (ACHN renal): 1.07 µM | TGI (ACHN renal): > 15.3 µM | GI50 (MOLT-4 leukemia): 14.8 µM | TGI (MOLT-4 leukemia): > 25 µM | GI50 (COLO 205 colon): 0.981 µM | TGI (COLO 205 colon): > 25 µM | GI50 (SF-295 CNS): 0.256 µM | GI50 (A498 renal): 0.151 µM | TGI (A498 renal): 1.62 µM | GI50 (HCT-15 colon): 0.198 µM | TGI (HCT-15 colon): > 25 µM | GI50 (K-562 leukemia): 0.175 µM | TGI (K-562 leukemia): > 25 µM | GI50 (CAKI-1 renal): 2.12 µM | TGI (CAKI-1 renal): > 22.2 µM | GI50 (NCI-H23 lung): 5.06 µM | TGI (NCI-H23 lung): > 25 µM | GI50 (HCT-116 colon): 0.337 µM | TGI (HCT-116 colon): > 25 µM | GI50 (LOX IMVI melanoma): 1.92 µM | TGI (LOX IMVI melanoma): > 25 µM | GI50 (U251 CNS): 0.511 µM | TGI (U251 CNS): > 25 µM | GI50 (HS 578T breast): 0.223 µM | TGI (HS 578T breast): > 25 µM | GI50 (NCI-H460 lung): 0.484 µM | TGI (NCI-H460 lung): > 25 µM | GI50 (786-0 renal): 1.35 µM | TGI (786-0 renal): > 17.1 µM | GI50 (RPMI-8226 leukemia): 0.97 µM | TGI (RPMI-8226 leukemia): > 25 µM | GI50 (NCI/ADR-RES ovarian): 0.728 µM | TGI (NCI/ADR-RES ovarian): > 25 µM | GI50 (OVCAR-5 ovarian): > 25 µM | TGI (OVCAR-5 ovarian): > 25 µM | GI50 (SNB-19 CNS): > 25 µM | TGI (SNB-19 CNS): > 25 µM | GI50 (SK-MEL-28 melanoma): > 25 µM | TGI (SK-MEL-28 melanoma): > 25 µM | GI50 (MDA-MB-231 breast): 4.42 µM | TGI (MDA-MB-231 breast): > 25 µM | GI50 (SNB-75 CNS): 0.0215 µM | GI50 (HOP-62 NSCLC): 1.02 µM | TGI (HOP-62 NSCLC): > 25 µM | GI50 (TK-10 renal): 9.23 µM | TGI (TK-10 renal): > 25 µM | GI50 (RXF 393 renal): 0.245 µM | TGI (RXF 393 renal): 1.92 µM | GI50 (SN12C renal): 3.29 µM | TGI (SN12C renal): > 25 µM | GI50 (SK-OV-3 ovarian): 1.62 µM | TGI (SK-OV-3 ovarian): > 25 µM | GI50 (SK-MEL-5 melanoma): 0.204 µM | TGI (SK-MEL-5 melanoma): > 25 µM | GI50 (SK-MEL-2 melanoma): 0.126 µM | TGI (SK-MEL-2 melanoma): > 25 µM | GI50 (KM12 colon): 0.338 µM | TGI (KM12 colon): > 13.7 µM | GI50 (T-47D breast): > 25 µM | TGI (T-47D breast): > 25 µM | GI50 (NCI-H226 lung): 4.08 µM | TGI (NCI-H226 lung): > 19.6 µM | GI50 (MALME-3M melanoma): > 25 µM | TGI (MALME-3M melanoma): > 25 µM | GI50 (CCRF-CEM leukemia): 0.76 µM | TGI (CCRF-CEM leukemia): > 25 µM | GI50 (NCI-H522 lung): 0.139 µM | TGI (NCI-H522 lung): > 25 µM | GI50 (SR leukemia): 0.11 µM | TGI (SR leukemia): > 25 µM
